The structures appear in SMILES notation. Values after ≈ are worked out from the molar mass of the structure shown.

Usually MIC stands for the least concentration at which growth counts as inhibited. Lower therefore signals greater potency.

Data set [1] deals with Streptococcus mutans. Put plainly: Antibacterial activity against Streptococcus mutans UA159. Format: functional.
Data set [2] concerns Streptococcus mutans. Put plainly: Antibacterial activity against Streptococcus mutans UA159 assessed as log decrease in bacterial count per biofilm recovered from hydroxyapatite disc using low dose compound containing hydroxyapatite bound tooth-binding micelles formed from biocompatible pluronic copolymers modified with alendronat measured after 48 hrs post dose. It counts as functional.

Data set [3] has as its system Streptococcus mutans. As to the kind of experiment: Antibacterial activity against Streptococcus mutans UA159 assessed as log decrease in bacterial count per biofilm recovered from hydroxyapatite disc using medium dose compound containing hydroxyapatite bound tooth-binding micelles formed from biocompatible pluronic copolymers modified with alendronat measured after 48 hrs post dose. It counts as functional.

Data set [4] relates to Streptococcus mutans. As to the kind of experiment: Antibacterial activity against Streptococcus mutans UA159 assessed as log decrease in bacterial count per biofilm recovered from hydroxyapatite disc using high dose compound containing hydroxyapatite bound tooth-binding micelles formed from biocompatible pluronic copolymers modified with alendronat measured after 48 hrs post dose. It counts as functional.

The nature of data set [5]: Drug release from hydroxyapatite bound tooth-binding micelles formed from biocompatible pluronic copolymers modified with alendronat assessed as compound release into medium after 48 hrs. It counts as physicochemical.

As to `CC(C)=CCC/C(C)=C/CC/C(C)=C/CO` [FARNESOL], the MIC in data set [1] was 125 µM (≈ 27.8 µg/mL). In addition, the FC in data set [2], in data set [3] and in data set [4] was 4 throughout. Also, in data set [5], the Activity stood at 10%.

The values are drawn from ChEMBL document CHEMBL1671671, “Tooth-binding micelles for dental caries prevention” (Antimicrob Agents Chemother, 2009).
